Legend:
[1] = system: Cells stably expressing Amyloid Precursor Protein (APP); experiment: In vitro BACE cell-based assay (HEK cell assay): Aβ40 in conditioned medium by sandwich ELISA; conditions: Homo sapiens, Aβ40 in conditioned medium after 24 h incubation
Experimental: In Vitro BACE Cell-Based Assay:
The cell-based assay measures inhibition or reduction of Aβ40 in conditioned medium of test compound treated cells expressing amyloid precursor protein.
Cells stably expressing Amyloid Precursor Protein (APP) were plated at a density of 40K cells/well in 96 well plates (Costar). The cells were cultivated for 24 hours at 37° C. and 5% CO2 in DMEM supplemented with 10% FBS. The test compounds were then added to cells in 10-point dose response concentrations with the starting concentration being either 100 μM or 10 μM. The compounds were diluted from stock solutions in DMSO and the final DMSO concentration of the test compounds on cells was 0.1%. After 24 h of incubation with the test compounds the supernatant conditioned media was collected and the Aβ 40 levels were determined using a sandwich ELISA. The IC50 of the compound was calculated from the percent of control or percent inhibition of Aβ 40 as a function of the concentration of the test compound.
The sandwich ELISA to detect Aβ 40 was performed in 96 well microtiter plates, which were pre-treated with goat anti-rabbit IgG (Pierce). The capture and detecting antibody pair that were used to detect Aβ 40 from cell supernatants were affinity purified pAb40 (Biosource) and biotinylated 6E10 (Signet Labs Inc.), respectively. The optimal concentration for the pAb40 antibody was 3 μg/ml in Superblock/TBS (Pierce) that was supplemented with 0.05% Tween 20 (Sigma). Optimal concentration for the detection antibody 6E10-biotinylated was 0.5 μg/ml in Superblock/TBS (Pierce) that had been supplemented with 2% normal goat serum and 2% normal mouse serum.
Cellular supernatants were incubated with the capture antibody for 3 h at 4° C., followed by 3 wash steps in TBS-tween (0.05%). The detecting antibody incubation was for 2 h at 4° C., again followed by the wash steps as described previously. The final readout of the ELISA is Time-Resolved Fluorescence (counts per minute) using Delfia reagents Streptavidin-Europium and Enhancement solutions (Perkin Elmer) and the Victor 2 multilabel counter (Perkin Elmer).
Of the compounds tested, in-the cell-based assay, data for each of Examples 33-156 is provided in Table 1 and Examples 208-246 are provided in Table 4.

BACE1 = BACE1 (Homo sapiens, UniProt P56817); experiment: In vitro enzymatic BACE FRET (fluorescence resonance energy transfer) assay; format: biochemical
How it was run: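 Fluorescence (ex 488 nm, […]) was read after Tris addition raised pH to neutral, ending a one-hour incubation. Reaction started with 50 nM fluorophore/quencher peptide substrate in pH 4.2 acetate (0.05 M) containing 100 uM genapol and 10% DMSO final.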

BACE1, sequence (P56817 46-501, species assumed): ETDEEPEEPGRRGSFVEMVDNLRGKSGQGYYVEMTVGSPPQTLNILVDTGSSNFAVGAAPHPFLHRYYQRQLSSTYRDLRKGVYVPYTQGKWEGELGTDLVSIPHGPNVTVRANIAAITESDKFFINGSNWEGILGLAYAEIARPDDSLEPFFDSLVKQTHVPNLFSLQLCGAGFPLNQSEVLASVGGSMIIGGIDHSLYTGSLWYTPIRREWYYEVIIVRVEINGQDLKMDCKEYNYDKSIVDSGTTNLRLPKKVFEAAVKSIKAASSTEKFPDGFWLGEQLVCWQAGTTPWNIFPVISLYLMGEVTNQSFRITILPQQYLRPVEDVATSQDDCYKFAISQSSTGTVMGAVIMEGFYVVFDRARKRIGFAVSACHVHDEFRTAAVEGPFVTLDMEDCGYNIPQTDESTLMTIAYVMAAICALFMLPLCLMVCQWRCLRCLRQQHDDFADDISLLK

Row | IC50 ([1]; HEK293, 24 h) [nM] | IC50 (BACE1) [nM] | Structure (SMILES) | IC50 ([1]; HEK293) [nM]
1 | 420 | 95 | C=CC[C@H](NC(=O)[C@H](CC)OC)[C@H](O)CN[C@H]1CC2(CCC2)Oc2ncc(CC(C)(C)C)cc21 [Example 147, (2S)-N-((1S)-1-((1R)-2-(((4′S)-6′-(2,2-dimethylpropyl)-3′,4′-dihydrospiro[cyclobutane-1,2′-pyrano[2,3-b]pyridin]-4′-yl)amino)-1-hydroxyethyl)-3-buten-1-yl)-2-(methyloxy)butanamide] | –
2 | 249 | 84 | C=CC[C@H](NC(=O)COC)[C@H](O)CN[C@H]1CC2(CCC2)Oc2ncc(CC(C)(C)CF)cc21 [Example 80, N-((1S)-1-((1R)-2-(((4′S)-6′-(3-fluoro-2,2-dimethylpropyl)-3′,4′-dihydrospiro[cyclobutane-1,2′-pyrano[2,3-b]pyridin]-4′-yl)amino)-1-hydroxyethyl)-3-buten-1-yl)-2-(methyloxy)acetamide] | –
3 | 60 | 49 | C=CCC(NC(=O)C1CN(C(C)=O)CCO1)C(O)CNC1CC2(CCC2)Oc2ncc(CC(C)(C)C)cc21 [Example 155, (2R)-4-acetyl-N-((1S)-1-((1R)-2-(((4′S)-6′-(2,2-dimethylpropyl)-3′,4′-dihydrospiro[cyclobutane-1,2′-pyrano[2,3-b]pyridin]-4′-yl)amino)-1-hydroxyethyl)-3-buten-1-yl)-2-morpholinecarboxamide; (2S)-4-acetyl-N-((1S)-1-((1R)-2-(((4′S)-6′-(2,2-dimethylpropyl)-3′,4′-dihydrospiro[cyclobutane-1,2′-pyrano[2,3-b]pyridin]-4′-yl)amino)-1-hydroxyethyl)-3-buten-1-yl)-2-morpholinecarboxamide] | –
4 | 28 | 2 | C=CCC(NC(=O)C1CCC(=O)O1)C(O)CNC1CC2(CC(O)C2)Oc2ncc(CC(C)(C)C)cc21 [Example 112, (2S)-N-((1S)-1-((1R)-2-(((1s,3S,4′S)-6′-(2,2-dimethylpropyl)-3-hydroxy-3′,4′-dihydrospiro[cyclobutane-1,2′-pyrano[2,3-b]pyridin]-4′-yl)amino)-1-hydroxyethyl)-3-buten-1-yl)-5-oxotetrahydro-2-furancarboxamide] | –
5 | 190 | 94 | C=CC[C@H](NC(=O)c1ccns1)[C@H](O)CN[C@H]1CC2(CCC2)Oc2ncc(CC(C)(C)C)cc21 [Example 130, N-((1S)-1-((1R)-2-(((4′S)-6′-(2,2-dimethylpropyl)-3′,4′-dihydrospiro[cyclobutane-1,2′-pyrano[2,3-b]pyridin]-4′-yl)amino)-1-hydroxyethyl)-3-buten-1-yl)-5-isothiazolecarboxamide] | –
6 | 2580 | 371 | C=CC[C@H](NC(=O)c1cccc(F)c1)[C@H](O)CN[C@H]1CC2(CCC2)Oc2ncc(CC(C)(C)C)cc21 [Example 64, N-((1S)-1-((1R)-2-(((4′S)-6′-(2,2-dimethylpropyl)-3′,4′-dihydrospiro[cyclobutane-1,2′-pyrano[2,3-b]pyridin]-4′-yl)amino)-1-hydroxyethyl)-3-buten-1-yl)-3-fluorobenzamide] | –
7 | 802 | 675 | C=CC[C@H](NC(=O)c1cnccc1OC)[C@H](O)CN[C@H]1CC2(CCC2)Oc2ncc(CC(C)(C)C)cc21 [Example 76, N-((1S)-1-((1R)-2-(((4′S)-6′-(2,2-dimethylpropyl)-3′,4′-dihydrospiro[cyclobutane-1,2′-pyrano[2,3-b]pyridin]-4′-yl)amino)-1-hydroxyethyl)-3-buten-1-yl)-4-(methyloxy)-3-pyridinecarboxamide] | –
8 | 207 | 445 | C=CC[C@H](NC(=O)[C@@H](C)OC)[C@H](O)CN[C@H]1CC2(CCC2)Oc2nc(F)c(CC(C)C)cc21 [Example 127, (2R)-N-((1S)-1-((1R)-2-(((4′S)-7′-fluoro-6′-(2-methylpropyl)-3′,4′-dihydrospiro[cyclobutane-1,2′-pyrano[2,3-b]pyridin]-4′-yl)amino)-1-hydroxyethyl)-3-buten-1-yl)-2-(methyloxy)propanamide] | –
9 | 998 | 212 | C=CC[C@H](NC(=O)c1cc(F)ccc1F)[C@H](O)CN[C@H]1CC2(CCC2)Oc2ncc(CC(C)(C)C)cc21 [Example 71, N-((1S)-1-((1R)-2-(((4′S)-6′-(2,2-dimethylpropyl)-3′,4′-dihydrospiro[cyclobutane-1,2′-pyrano[2,3-b]pyridin]-4′-yl)amino)-1-hydroxyethyl)-3-buten-1-yl)-2,5-difluorobenzamide] | –
10 | 228 | 131 | C=CC[C@H](NC(=O)c1cccnn1)[C@H](O)CN[C@H]1CC2(CCC2)Oc2ncc(CC(C)(C)C)cc21 [Example 57, N-((1S)-1-((1R)-2-(((4′S)-6′-(2,2-dimethylpropyl)-3′,4′-dihydrospiro[cyclobutane-1,2′-pyrano[2,3-b]pyridin]-4′-yl)amino)-1-hydroxyethyl)-3-buten-1-yl)-3-pyridazinecarboxamide] | –
11 | 878 | 454 | C=CC[C@H](NC(=O)C1(OC)CC1)[C@H](O)CN[C@H]1CC2(CCC2)Oc2ncc(CC(C)(C)C)cc21 [Example 151, N-((1S)-1-((1R)-2-(((4′S)-6′-(2,2-dimethylpropyl)-3′,4′-dihydrospiro[cyclobutane-1,2′-pyrano[2,3-b]pyridin]-4′-yl)amino)-1-hydroxyethyl)-3-buten-1-yl)-1-(methyloxy)cyclopropanecarboxamide] | –
12 | 85 | 81 | C=CC[C@H](NC(C)=O)[C@H](O)CN[C@H]1CC2(CCC2)Oc2ncc(CC(C)C)cc21 [Example 38, N-((1S)-1-((1R)-1-hydroxy-2-(((4′S)-6′-(2-methylpropyl)-3′,4′-dihydrospiro[cyclobutane-1,2′-pyrano[2,3-b]pyridin]-4′-yl)amino)ethyl)-3-buten-1-yl)acetamide] | –
13 | 7580 | 3400 | C=CC[C@H](NC(=O)COC)[C@H](O)CN[C@H]1CC2(CCC2)Oc2ncc(CC(C)(C)C#N)cc21 [Example 55, N-((1S)-1-((1R)-2-(((4′S)-6′-(2-cyano-2-methylpropyl)-3′,4′-dihydrospiro[cyclobutane-1,2′-pyrano[2,3-b]pyridin]-4′-yl)amino)-1-hydroxyethyl)-3-buten-1-yl)-2-(methyloxy)acetamide] | –
14 | 418 | 302 | C=CC[C@H](NC(=O)c1ccn(C)n1)[C@H](O)CN[C@H]1CC2(CCC2)Oc2ncc(CC(C)(C)C)cc21 [Example 132, N-((1S)-1-((1R)-2-(((4′S)-6′-(2,2-dimethylpropyl)-3′,4′-dihydrospiro[cyclobutane-1,2′-pyrano[2,3-b]pyridin]-4′-yl)amino)-1-hydroxyethyl)-3-buten-1-yl)-1-methyl-1H-pyrazole-3-carboxamide] | –
15 | 247 | 565 | C=CC[C@H](NC(=O)[C@@H](CC)OC)[C@H](O)CN[C@H]1CC2(CCC2)Oc2ncc(CC(C)(C)C)cc21 [Example 146, (2R)-N-((1S)-1-((1R)-2-(((4′S)-6′-(2,2-dimethylpropyl)-3′,4′-dihydrospiro[cyclobutane-1,2′-pyrano[2,3-b]pyridin]-4′-yl)amino)-1-hydroxyethyl)-3-buten-1-yl)-2-(methyloxy)butanamide] | –
16 | 1970 | 465 | C=CC[C@H](NC(=O)c1cc(F)c(F)c(F)c1)[C@H](O)CN[C@H]1CC2(CCC2)Oc2ncc(CC(C)(C)C)cc21 [Example 79, N-((1S)-1-((1R)-2-(((4′S)-6′-(2,2-dimethylpropyl)-3′,4′-dihydrospiro[cyclobutane-1,2′-pyrano[2,3-b]pyridin]-4′-yl)amino)-1-hydroxyethyl)-3-buten-1-yl)-3,4,5-trifluorobenzamide] | –
17 | 1460 | 339 | C=CC[C@H](NC(=O)c1ccccc1F)[C@H](O)CN[C@H]1CC2(CCC2)Oc2ncc(CC(C)(C)C)cc21 [Example 99, N-((1S)-1-((1R)-2-(((4′S)-6′-(2,2-dimethylpropyl)-3′,4′-dihydrospiro[cyclobutane-1,2′-pyrano[2,3-b]pyridin]-4′-yl)amino)-1-hydroxyethyl)-3-buten-1-yl)-2-fluorobenzamide] | –

Row | Structure (SMILES) | IC50 ([1]; HEK293, 24 h) [nM] | IC50 (BACE1) [nM] | IC50 ([1]; HEK293) [nM]
18 | C=C(C)C[C@H](NC(=O)CF)[C@H](O)CN[C@H]1CC2(CCC2)Oc2ncc(CC(C)(C)C)cc21 [Example 100, N-((1S)-1-((1R)-2-(((4′S)-6′-(2,2-dimethylpropyl)-3′,4′-dihydrospiro[cyclobutane-1,2′-pyrano[2,3-b]pyridin]-4′-yl)amino)-1-hydroxyethyl)-3-methyl-3-buten-1-yl)-2-fluoroacetamide] | – | 3650 | 3330

Reference: US8633315B2, “Substituted hydroxyethyl amine compounds as beta-secretase modulators and methods of use” (Amgen Inc., priority 2007, dated 2014)
